US9464064B2, “HCV helicase inhibitors and methods of use thereof” (University of Kansas, priority 2011, dated 2016)
Like-named read-outs stand apart in the source and are kept apart here.

Experiments:
[1] = molecular target: T1, HCV NS3 helicase NS3h_1b(con1) (Hepatitis C virus genotype 1b, UniProt Q9WMX2); assay: biochemical; type: biochemical, hepatitis C virus genotype 1b(con1)
T1 construct: truncated C-terminally His-tagged NS3 proteins lacking the N-terminal protease, called NS3h; His-tag (C); made in house
T1 sequence (Q9WMX2 1192-1657): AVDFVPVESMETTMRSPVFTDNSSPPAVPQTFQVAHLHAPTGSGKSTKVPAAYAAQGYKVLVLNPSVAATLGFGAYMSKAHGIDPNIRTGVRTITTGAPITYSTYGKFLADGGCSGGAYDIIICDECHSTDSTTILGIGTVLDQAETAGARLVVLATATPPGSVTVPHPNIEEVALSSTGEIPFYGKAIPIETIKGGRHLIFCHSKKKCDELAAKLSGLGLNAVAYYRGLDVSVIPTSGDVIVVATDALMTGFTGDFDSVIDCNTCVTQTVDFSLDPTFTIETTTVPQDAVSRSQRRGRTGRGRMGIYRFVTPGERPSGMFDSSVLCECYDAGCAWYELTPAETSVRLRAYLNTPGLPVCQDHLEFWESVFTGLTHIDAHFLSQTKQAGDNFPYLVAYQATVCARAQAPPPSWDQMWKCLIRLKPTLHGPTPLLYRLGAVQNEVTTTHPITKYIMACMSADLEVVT
Summary of the method: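 Molecular beacon helicase assay with His-tagged recombinant NS3 and a Cy5/IBRQ-labelled partially duplex DNA substrate (25 bp) or Tye665-labelled RNA substrate (19 bp). Reactions started with 1 mM ATP. Screening read fluorescence before and 30 min after ATP (ex 643/em 670 nm). For IC50, 5% v/v DMSO was present, initial velocities came from first-order decay fits, and a Hill equation was applied.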

NS3h_2a(JFH1) = molecular target: T2, NS3h_2a(JFH1) (Hepatitis C virus genotype 2a, UniProt Q99IB8); assay: MBHA, DNA substrate, genotype 2a helicase; type: biochemical, hepatitis C virus genotype 2a(JFH1)
T2 construct: truncated C-terminally His-tagged NS3 proteins lacking the N-terminal protease, called NS3h; His-tag (C); made in house
T2 sequence (Q99IB8 1196-1661): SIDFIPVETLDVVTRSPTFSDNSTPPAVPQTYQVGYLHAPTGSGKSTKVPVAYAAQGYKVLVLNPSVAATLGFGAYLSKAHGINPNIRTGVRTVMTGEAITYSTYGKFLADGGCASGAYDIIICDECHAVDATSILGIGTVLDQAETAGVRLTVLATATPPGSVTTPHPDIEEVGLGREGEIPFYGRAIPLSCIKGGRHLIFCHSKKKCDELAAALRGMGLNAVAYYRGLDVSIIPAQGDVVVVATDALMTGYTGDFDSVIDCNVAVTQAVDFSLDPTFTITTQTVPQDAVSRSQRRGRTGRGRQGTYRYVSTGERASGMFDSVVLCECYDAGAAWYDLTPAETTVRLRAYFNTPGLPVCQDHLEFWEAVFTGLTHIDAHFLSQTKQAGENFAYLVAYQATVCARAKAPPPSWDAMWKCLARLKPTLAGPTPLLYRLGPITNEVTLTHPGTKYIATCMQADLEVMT
Procedure: All oligonucleotides were purchased from Integrated DNA Technologies (IDT, Coralville, Iowa). Primuline derivatives were synthesized and purified as described herein. Three different NS3 proteins were used in this study. Two were truncated C-terminally His-tagged NS3 proteins lacking the N-terminal protease, called NS3h, the third was a full-length NS3 with the portion of NS4A needed for protease activation fused to its N-terminus, called scNS4A-NS3 (Howe, et al. (1999) Protein Sci. 8:1332-41), and the fourth was a 23 kDa scNS4A-NS3 protease fragment lacking the helicase domains, called scNS4A-NS3p (Protein One, Rockville, Md.). NS3h was expressed from two different HCV strains. NS3h_1b(con1) was from the con1 strain of genotype 1b (GENBANK accession AB114136), and NS3h_2a(JFH1) was from the JFH1 strain of HCV genotype 2a (GENBANK accession AJ238799). […] His-tagged recombinant NS3h_1b(con1), NS3h_2a(JFH1), and scNS4A-NS3 (also from genotype 1b(con1)) were expressed, and purified as previously described (Frick, et al. (2010) supra; Lam, et al. (2003) J. Virol. 77:3950-3961). The scNS4A-NS3p (genotype 1b) was from Protein One. A plasmid expressing NS3h from dengue virus strain 2 (NS3h_DV2)(GENBANK accession 2BMF) is known in the art (Xu, et al. (2005) J. Virol. 79:10278-10288), and used to express and purify NS3h_DV2 (Belon, et al. (2010) supra)
Compounds that specifically target less conserved regions of a HCV protein are often not potent inhibitors of the same protein derived from other genotypes, and they might be susceptible to rapid evolution of related viruses. As described herein, primuline derivatives can inhibit HCV helicase isolated from the genotype 1b(con1) strain. Therefore to further analyze specificity, the subset of primuline analogs was tested on the helicase isolated from the genotype 2a(JFH1) strain. The two recombinant proteins differ at 83 of their 480 amino acids. The JHF1 strain is also of interest because it serves as the backbone for HCV strains capable of replicating in cell culture (Wakita, et al. (2005) Nat. Med. 11:791-796). The molecular beacon-based helicase assay (MBHA) (Belon & Frick (2008) supra) was used to measure the ability of each compound to inhibit DNA unwinding catalyzed by NS3h isolated from genotype 2a(JFH1) (NS3h_2a(JFH1)). […] Selected compounds were also tested for the ability to inhibit helicase reactions catalyzed by full-length NS3 and a single chain NS4A-NS3 protein (scNS4A-NS3) described below and used for protease assays.

[2] = genotype 1b (con1), read-out: Target Potency MBHA (IC50 avg., μM) 1b (con1)
[3] = standard HCV helicase MBHA (Table 9), read-out: DNA Unwinding IC50
[4] = genotype 2a (JFH1), read-out: Target Potency MBHA (IC50 avg., μM) 2a (JFH1) (converted)
[5] = DNA-based MBHA, genotype 1b, read-out: DNA Helicase NS3h_1b IC50 (μM) ± SD
[6] = MBHA, DNA unwinding, mean ± SD of three titrations, read-out: Helicase IC50
[7] = DNA-based MBHA, genotype 2a(JFH1), read-out: DNA Helicase NS3h_2a IC50 (μM) ± SD

| Structure (SMILES) | IC50 [1, 2] | IC50 [1, 3] | IC50 (NS3h_2a(JFH1); [4]) | IC50 [1, 5] | IC50 [1, 6] | IC50 (NS3h_2a(JFH1); [7]) | times lower affinity towards NS3 than P4 ([1]; versus P4) |
| --- | --- | --- | --- | --- | --- | --- | --- |
| Cc1ccc2nc(-c3ccc4nc(-c5ccc(NC(=O)Nc6ccc(Cl)cc6)cc5)sc4c3)sc2c1S(=O)(=O)O [Compound 54] | 3.6 ± 0.9 µM | 4 ± 1 µM | 4.4 µM |  |  |  |  |
| Cc1ccc2nc(-c3ccc(NC(=O)c4ccc(NC(=O)c5ccc(N)cc5)cc4)cc3)sc2c1S(=O)(=O)O.N [Compound 46] | 30 ± 3.8 µM | 29 ± 4 µM | 26 µM |  |  |  |  |
| Cc1ccc2nc(-c3ccc4nc(-c5ccc6nc(-c7ccc8nc(-c9ccc(N)cc9)sc8c7)sc6c5)sc4c3)sc2c1S(=O)(=O)O [Compound P4, 2′″-(4-aminophenyl)-6-methyl-[2,6′:2″,6′″-quaterbenzo[d]thiazole]-7-sulfonic acid] |  |  |  | 2 ± 0.1 µM | 0.8 µM | 1 ± 0.3 µM |  |
| Cc1ccc2nc(-c3ccc4nc(-c5ccc(NC(=O)c6ccc(F)cc6)cc5)sc4c3)sc2c1S(=O)(=O)O.N [Compound 7, 2′-(4-(4-fluorobenzamido)phenyl)-6-methyl-[2, bibenzo[d]thiazole]-7-sulfonic acid] | 5.2 ± 0.6 µM | 5 ± 1 µM | 3 ± 0.8 µM | 5 ± 0.6 µM | 5.2 ± 0.6 µM | 3 ± 0.8 µM |  |
| Cc1ccc2nc(-c3ccc(NC(=O)c4ccc(NC(=O)c5ccc(NC(=O)OCC6c7ccccc7-c7ccccc76)cc5)cc4)cc3)sc2c1S(=O)(=O)O.N [Compound 51] | 2.5 ± 0.5 µM | 3 µM | 1.9 µM |  |  |  |  |
| Cc1ccc2nc(-c3ccc4nc(-c5ccc(NC(=O)c6ccc(NC(=O)OCC7c8ccccc8-c8ccccc87)cc6)cc5)sc4c3)sc2c1S(=O)(=O)O [Compound 16, 2′-(4-(4-((((9H-fluoren-9-yl)methoxy)carbonyl)amino)benzamido)phenyl)-6-methyl-[2,6′-bibenzo[d]thiazole]-7-sulfonic acid] | 5.4 ± 1 µM | 5 ± 1 µM | 5.8 ± 3.1 µM |  | 5.4 ± 1 µM |  |  |
| Cc1ccc2nc(-c3ccc4nc(-c5ccc(N)cc5)sc4c3)sc2c1S(=O)(=O)O [Compound P2a, 2′-(4-aminophenyl)-6-methyl-[2,6′-bibenzo[d]thiazole]-7-sulfonic acid] |  | 6 ± 2 µM |  | 45 ± 14 µM | 49 µM | 58 ± 51 µM | 10-20 times |
| CC(=O)Nc1ccc(-c2nc3ccc(-c4nc5ccc(C)c(S(=O)(=O)O)c5s4)cc3s2)cc1 [Compound 30, 2′-(4-acetamidophenyl)-6-methyl-[2,6′-bibenzo[d]thiazole]-7-sulfonic acid] | > 100 µM | 227 ± 107 µM | > 100 µM |  | > 100 µM |  |  |
| Cc1ccc2nc(-c3ccc(NC(=S)Nc4ccccc4Br)cc3)sc2c1 | > 100 µM |  | > 100 µM |  |  |  |  |
| COc1ccc(NC(=O)Nc2ccc(-c3nc4ccc(-c5nc6ccc(C)c(S(=O)(=O)O)c6s5)cc4s3)cc2)cc1 [Compound 55] | 4.8 ± 2 µM | 5 ± 2 µM | 6.4 µM |  |  |  |  |
| Cc1ccc2nc(-c3ccc(NC(=O)c4ccc(NC(=O)Nc5ccccc5)cc4)cc3)sc2c1S(=O)(=O)O.N [Compound 45] | 44 ± 12 µM | 44 ± 12 µM | 32 µM |  |  |  |  |
| COc1ccc(S(=O)(=O)Nc2ccc(-c3nc4ccc(-c5nc6ccc(C)c(S(=O)(=O)O)c6s5)cc4s3)cc2)cc1 [Compound 29, 2′-(4-(4-methoxyphenylsulfonamido)phenyl)-6-methyl-[2,6′-bibenzo[d]thiazole]-7-sulfonic acid] | 24.4 ± 2.2 µM | 24 ± 2 µM | 13.4 µM |  | 24 ± 2.2 µM |  |  |
| Cc1ccc2nc(-c3ccc4nc(-c5ccc(NS(=O)(=O)c6ccc(C(F)(F)F)cc6)cc5)sc4c3)sc2c1S(=O)(=O)O | 32 ± 16 µM |  | 35 µM |  |  |  |  |
| Cc1ccc2nc(-c3ccc4nc(-c5ccc(NC(=O)c6ccc(C(F)(F)F)c(F)c6)cc5)sc4c3)sc2c1S(=O)(=O)O [Compound 23, 2′-(4-(3-fluoro-4-(trifluoromethyl)benzamido)phenyl)-6-methyl-[2,6′-bibenzo[d]thiazole]-7-sulfonic acid] | 17.4 ± 17 µM | 17 ± 17 µM | 13 ± 2 µM |  | 17 ± 17 µM |  |  |
| Cc1ccc2nc(-c3ccc4nc(-c5ccc(NC(=O)Nc6ccc(F)cc6)cc5)sc4c3)sc2c1S(=O)(=O)O.N [Compound 48] | 7.8 ± 2.2 µM | 8 ± 2 µM | 9.9 µM |  |  |  |  |
| Cc1ccc2nc(-c3ccc4nc(-c5ccc(NC(=O)c6ccccc6)cc5)sc4c3)sc2c1S(=O)(=O)O [Compound 5, 2′-(4-benzamidophenyl)-6-methyl-[2,6′-bibenzo[d]thiazole]-7-sulfonic acid] | 10.7 ± 1.5 µM | 11 ± 2 µM | 4.6 ± 1.4 µM |  | 11 ± 1.5 µM |  |  |
| Cc1ccc2nc(-c3ccc4nc(-c5ccc(NC(=O)c6ccc7ccccc7c6)cc5)sc4c3)sc2c1S(=O)(=O)O [Compound 33, 2′-(4-(2-naphthamido)phenyl)-6-methyl-[2,6′-bibenzo[d]thiazole]-7-sulfonic acid] | 3.6 µM | 4 µM | 4.4 µM | 3 ± 0.7 µM | 2.7 ± 0.7 µM | 2 ± 0.6 µM |  |
| Cc1ccc2nc(-c3ccc(NC(=O)c4ccc(NC(=S)Nc5ccccc5)cc4)cc3)sc2c1S(=O)(=O)O.N [Compound 43] | 29 ± 6.9 µM | 29 ± 7 µM | 29 µM |  |  |  |  |
| Cc1ccc2nc(-c3ccc4nc(-c5ccc(NC(=O)c6ccc(Cl)c(Cl)c6)cc5)sc4c3)sc2c1S(=O)(=O)O [Compound 18, 2′-(4-(3,4-dichlorobenzamido)phenyl)-6-methyl-[2,6′-bibenzo[d]thiazole]-7-sulfonic acid] | 3.7 ± 1 µM | 4 ± 1 µM | 4.5 ± 1 µM | 4 ± 1 µM | 3.7 ± 1 µM |  |  |
| Cc1ccc2nc(-c3ccc(NC(=O)c4ccc(NS(=O)(=O)c5ccccc5)cc4)cc3)sc2c1S(=O)(=O)O | > 100 µM |  | > 100 µM |  |  |  |  |
| Cc1ccc2nc(-c3ccc4nc(-c5ccc(NC(=O)c6ccccc6C(F)(F)F)cc5)sc4c3)sc2c1S(=O)(=O)O [Compound 19, 6-methyl-2′-(4-(2-(trifluoromethyl)benzamido)phenyl)-[2,6′-bibenzo[d]thiazole]-7-sulfonic acid] | 14.1 ± 1 µM | 14 ± 1 µM | 24.3 ± 9 µM |  | 14 ± 1 µM |  |  |
| Cc1ccc2nc(-c3ccc4nc(-c5ccc(NC(=O)c6cccc(Cl)c6)cc5)sc4c3)sc2c1S(=O)(=O)O [Compound 17, 2′-(4-(3-chlorobenzamido)phenyl)-6-methyl-[2,6′-bibenzo[d]thiazole]-7-sulfonic acid] | 2.6 ± 1 µM | 3 ± 1 µM | 3.9 ± 1 µM | 3 ± 0.8 µM | 2.6 ± 1 µM | 4 ± 0.5 µM |  |
| Cc1ccc2nc(-c3ccc4nc(-c5ccc(NC(=O)Nc6ccccc6)cc5)sc4c3)sc2c1S(=O)(=O)O.N [Compound 52] | 4.1 ± 1.3 µM | 4 ± 1 µM | 6 µM |  |  |  |  |
| Cc1ccc2nc(-c3ccc4nc(-c5ccc(NC(=O)c6cccc7ccccc67)cc5)sc4c3)sc2c1S(=O)(=O)O.N [Compound 49] | 4.5 ± 0.4 µM | 5 µM | 3.9 µM |  |  |  |  |
| Cc1ccc2nc(-c3ccc4nc(-c5ccc(NC(=O)c6cc(C(F)(F)F)ccc6F)cc5)sc4c3)sc2c1S(=O)(=O)O [Compound 25, 2′-(4-(2-fluoro-5-(trifluoromethyl)benzamido)phenyl)-6-methyl-[2,6′-bibenzo[d]thiazole]-7-sulfonic acid] | 6.4 ± 2 µM | 6 ± 2 µM | 6.7 ± 1 µM | 6 ± 1.9 µM | 6.4 ± 2 µM | 7 ± 0.9 µM |  |
